{"source": "patent US10912815B2", "about": "“Inhibitors of mitochondrial fission and methods of use thereof” (The Board of Trustees of the Leland Stanford Junior …, priority 2011, dated 2021)", "key": {"Drp1": {"system": "Drp1", "test": "Drp1 translocation to mitochondria in SH-SY5Y cells (western blot of mitochondrial fractions)", "assay_type": "cell-based, human", "protocol": "Cultured human SH-SY5Y neuronal cells were treated with peptide P110 (1 μM) for 30 min prior to 1 hr incubation in the absence or presence of MPP+(1-methyl-4-phenylpyridinium, a specific mitochondrial complex I inhibitor) (2 mM) or CCCP (carbonyl cyanide m-chloro phenyl hydrazone) (10 μM). Western blot analysis of mitochondrial fractions was determined by the indicated antibodies. VDAC was used as a loading control.\nIn another experiment, mitochondria were isolated from SH-SY5Y neuronal cells exposed to MPP+ in the absence or presence of P110. Mitochondrial fractions were subjected to Western blot analysis. The levels of Drp1, Fis1, Mff, Mfn1 (mitofisinl) and OPA1 in the mitochondrial fractions were determined. Voltage-dependent […] (VDAC), a marker of mitochondria, was used as internal loading controls. Quantitative data from three independent experiments are provided a the histogram, with data shown as mean±S.E (FIG. 3D)."}, "SH-SY5Y cells [1]": {"system": "SH-SY5Y cells", "test": "Mitochondrial morphology/fragmentation in SH-SY5Y cells (TOM20 staining)", "assay_type": "cell-based, human", "settings": "for percentage of cells with fragmented mitochondria: P110 1 μM 30 min, FIG. 5", "protocol": "To determine effects of P110 on mitochondrial morphology in response to mitochondrial stresses, an immuno-staining approach was used. In one experiment, SH-SY5Y neuronal cells were treated with Drp1 peptides or Drp1 siRNA followed by treatment of MPP+. The cells were then stained with TOM20 and Hoechst stain.\nIn another experiment, cultured SH-SY5Y cells were treated with P110 (1 μM) for 30 min followed by incubation with MPP+(2 mM, 4 hrs) or CCCP (5 uM, 30 min). The cells were then stained with anti-Tom 20 antibody (green) and Hoechst stain (scale bar 0.5 μm). Mitochondrial morphology was analyzed using 63× oil lens. The data were analyzed and are presented as a histogram in which the percentage of cells with fragmented mitochondria relative to the total number of cells is presented as the mean±S.E. of 3 independent experiments. At least 200 cells per group were counted."}, "[2]": {"system": "mitochondrial electron transport chain (complexes I-V)", "test": "Mitochondrial complex I-V assembly in SH-SY5Y cells (western blot)", "assay_type": "cell-based, human", "settings": "SH-SY5Y treated with MPP+, FIG. 8", "protocol": "The oxidative phosphorylation system in the mitochondria is responsible for generating ATP and consists of five major membrane protein complexes, the mitochondrial complexes I-V. MPP+ is a specific mitochondrial complex I inhibitor. P110 was tested for potential effects on MPP+-induced defects in mitochondrial complexes. […] The lower panel is a histogram in which the quantitative data generated from the western blot are expressed as mean±S.E. of 3 independent experiments."}, "[3]": {"system": "isolated mouse liver mitochondria with Drp1 recombinant protein", "test": "Cytochrome c levels in isolated mouse liver mitochondria incubated with Drp1", "assay_type": "biochemical", "settings": "8 min of Drp1 incubation, FIG. 6D top", "protocol": "Mitochondrial membrane potential was also determined using TMRM (tetramethylrhodamine methylester). Fifty μg of mitochondria were incubated with recombinant Drp1 (50 ng) followed by incubation with TMRM (0.5 μM) in the presence or absence of P110 (1 μM) or NAC (2.5 mM). Fluoresence detection was performed using black 96-well plates in a fluorescence microplate reader at 560 nm excitation and 690 nm emission and potential was assessed by quenching of the fluorescent signal. The data are presented as mean±S.E. of percentage relative to control mitochondria from three independent experiments (FIG. 6B, #, p<0.05 vs. control cells; *, p<0.05; **, P<0.01 vs. MPP+- or CCCP-treated cells). Isolated mouse liver mitochondria (50 μg) were incubated with Drp1 recombinant protein (50 ng) in the presence or absence of P110 (1 μM). A kinetic change of mitochondrial superoxide production was determined by using MITOSOX™ (red mitochondrial superoxide indicator). […] Mitochondrial membrane potential of isolated mouse liver mitochondria was determined by TMRM, as described above, in the indicated groups. […] Protein levels of cytochrome c in the mitochondria were determined by western blot analysis with anti-cytochrome c antibodies in the indicated groups (insert, FIG. 6D). Total ROS production was determined by staining SH-SY5Y cells with CM2HDCFA (1 μM […] at 37° C.) in the indicated groups. […]"}, "[4]": {"system": "isolated mouse liver mitochondria with Drp1 recombinant protein", "test": "Membrane potential of isolated mouse liver mitochondria incubated with Drp1 (TMRM)", "assay_type": "biochemical", "settings": "P110 1 μM, NAC 2.5 mM, FIG. 6D bottom", "protocol": "Mitochondrial membrane potential was also determined using TMRM (tetramethylrhodamine methylester). Fifty μg of mitochondria were incubated with recombinant Drp1 (50 ng) followed by incubation with TMRM (0.5 μM) in the presence or absence of P110 (1 μM) or NAC (2.5 mM). Fluoresence detection was performed using black 96-well plates in a fluorescence microplate reader at 560 nm excitation and 690 nm emission and potential was assessed by quenching of the fluorescent signal. The data are presented as mean±S.E. of percentage relative to control mitochondria from three independent experiments (FIG. 6B, #, p<0.05 vs. control cells; *, p<0.05; **, P<0.01 vs. MPP+- or CCCP-treated cells). Isolated mouse liver mitochondria (50 μg) were incubated with Drp1 recombinant protein (50 ng) in the presence or absence of P110 (1 μM). A kinetic change of mitochondrial superoxide production was determined by using MITOSOX™ (red mitochondrial superoxide indicator). The data are presented as mean±S.E. of percentage relative to the value at basal level from three independent experiments (FIG. 6C, #, p<0.05 vs. control mitochondria; *, p<0.05 vs. mitochondria with the addition of Drp1). Mitochondrial membrane potential of isolated mouse liver mitochondria was determined by TMRM, as described above, in the indicated groups. NAC (2.5 mM) was used as a positive control (FIG. 6D). Protein levels of cytochrome c in the mitochondria were determined by western blot analysis with anti-cytochrome c antibodies in the indicated groups (insert, FIG. 6D). Total ROS production was determined by staining SH-SY5Y cells with CM2HDCFA (1 μM […] at 37° C.) in the indicated groups. The data are presented as mean±S.E. of percentage relative to control group from three independent experiments (FIG. 6E, *, p<0.05 vs. either MPP+ or CCCP treated-group; #, p<0.05 vs. control group).\nThe mitochondrial membrane potential of isolated mouse liver mitochondria was then measured in the presence or absence of P110."}, "SH-SY5Y cells [5]": {"system": "SH-SY5Y cells", "test": "Autophagy marker LC3 in SH-SY5Y cells", "assay_type": "cell-based, human", "settings": "MPP+", "description": "Autophagy is another consequence of excessive mitochondrial fission (Twig et al., 2008, EMBO J 27:433-446; Wikstrom et al., 2009, Int J Biochem Cell Biol 41:1914-1927). Autophagy can be measured by the induction of the autophagic marker LC3 (microtubule-associated protein 1, light chain 3, also known as ATG8). Cultured SH-SY5Y cells were stained by anti-LC3 antibodies and nuclei were stained by Hoechsts staining. A histogram (FIG. 9C) depicts the number of LC3-positive punctate/per cell in the indicated groups. The data are presented as the mean±S.E. of three independent experiments. Western blot analysis of LC3 I/II with anti-LC3 antibodies is shown and is presented as a histogram where the data are expressed as mean±S.E. of three independent experiments (FIG. 9D, left panel)."}, "[6]": {"system": "Primary rat dopaminergic neurons", "test": "Mitochondrial superoxide production in primary dopaminergic neurons exposed to MPP+", "assay_type": "cell-based", "settings": "P110 1 μM, MPP+ 1 μM, 2 hrs, FIG. 10A", "protocol": "Primary rat dopaminergic neurons (cultured for 6 days) were treated without or with P110 (1 μM) followed by treatment with or without MPP+(1 μM). Two hrs following MPP+ treatment, the cells were stained with MITOSOX™ red (to measure mitochondrial superoxide production) and anti-TH antibody (a marker of dopaminergic neurons). Fifteen hrs after MPP+ treatment, cells were stained with anti-TH antibody and anti-Tom20 antibody (a marker of mitochondria)."}}, "note": "Entries after “also recorded” stand apart in the source; their conditions may differ. No end group written: not given here.", "data": [{"sequence": "RRRQRRKKRGYGGDLLPRGS (RRRQRRKKRGYGGDLLPRGS-NH2) [P110, TAT47-57 carrier, GG linker, Drp1 region 110 (GTPase domain) peptide DLLPRGS; C-terminus C(O)-NH2]", "values": [{"measurement": "levels of Drp1 associated with the mitochondrial fractions under stress", "setting": "Drp1; P110 1 μM 30 min before MPP+, CCCP, H2O2 or rotenone, FIG. 3A, 3B", "result": "abolished the increased levels of Drp1"}, {"measurement": "cellular level and distribution of other mitochondrial dynamics-related proteins (MFN-1/2, OPA1, Fis1)", "setting": "Drp1; SH-SY5Y, MPP+, FIG. 3C, 3D", "result": "did not affect"}, {"measurement": "reduction of MPP+-induced translocation of Drp1 from cytosol to the mitochondria", "setting": "Drp1; SH-SY5Y, MPP+, p<0.01, n=3, FIG. 3C, 3D", "result": "more than 60%"}, {"measurement": "percentage of cells with fragmented mitochondria", "setting": "SH-SY5Y cells [1]; then CCCP 5 uM 30 min, 63% without P110", "result": 23, "unit": "%"}, {"measurement": "percentage of cells with fragmented mitochondria", "setting": "SH-SY5Y cells [1]; then MPP+ 2 mM 4 hrs, 50% without P110", "result": 14, "unit": "%"}, {"measurement": "reduction of mitochondrial fragmentation in cells exposed to MPP+", "setting": "SH-SY5Y cells [1]; SH-SY5Y, MPP+, p<0.01, n=3, FIG. 4A, 4B", "result": 70, "unit": "%"}, {"measurement": "mitochondrial morphology/network in control (non-stressed) cells", "setting": "SH-SY5Y cells [1]; SH-SY5Y, no stressor", "result": "minimal effects; also recorded: no effect; also recorded: did not observe dramatic difference"}, {"measurement": "MPP+-induced reduction of NDUFB8 (complex I) and MTCOI (complex IV)", "setting": "[2]", "result": "abolished the reduction of these two proteins"}, {"measurement": "assembly of the mitochondrial electron transport chain (ETC)", "setting": "[2]", "result": "improved the assembly"}, {"measurement": "cytochrome c release from the mitochondria", "setting": "[3]", "result": "inhibited cytochrome c release"}, {"measurement": "mitochondrial membrane potential (MMP) of isolated mitochondria after Drp1 addition", "setting": "[4]", "result": "improved the MMP"}, {"measurement": "number of LC3-positive puncti in the cells", "setting": "SH-SY5Y cells [5]; FIG. 9C", "result": "reduced"}, {"measurement": "LC3 cleavage (LC3 I to LC3 II)", "setting": "SH-SY5Y cells [5]; FIG. 9D", "result": "reduced"}, {"measurement": "mitochondrial ROS (superoxide) production", "setting": "[6]", "result": "reduced"}]}]}
